According to patent publication US20220334127A1, “IN VITRO METHOD FOR OBTAINING CLINICAL DATA IN PATIENTS SUFFERING FROM AN INFLAMMATORY DISEASE” (FUNDACIÓN PARA LA FORMACIÓN E INVESTIGACIÓN SANITARIAS DE …, priority 2019, published 2022):

Key:
[1] = test system: NLRP3 inflammasome; test: IL-1β release from BMDMs pre-treated, washed, LPS-primed and stimulated with nigericin; assay type: cell-based, mouse; details: for IL-1β release after mitochondrial depolarizing agent: wild type or P2rx7−/− BMDMs, antimycin A 5 μM or FCCP 1 μM 30 min, then LPS 1 μg/ml 4 h, nigericin 10 μM 30 min (FIG. 6d)
Method: FIG. 6. P2X7 receptor stimulation induces an impairment of the NLRP3 inflammasome in monocytes. (a-b) Percentage of monocytes with ASC-specks (a) and release of […] from PBMCs (b) isolated from healthy donor blood samples treated with ATP (3 mM, 30 min; ATP-pre), then washed and primed with or without LPS (1 μg/ml, 2 h) and then treated for 20 min with ATP (3 mM; ATP-post) or nigericin (10 μM) as indicated. (c) IL-1β release from wild type or P2rx7^−/− BMDMs treated as in a, but with 4 h LPS priming and 30 min of ATP or nigericin. (d) IL-1β release from wild type or P2rx7^−/− BMDMs treated for 30 min with antimycin A (5 μM) or FCCP (1 μM) and then washed and primed with LPS (1 μg/ml, 4 h) and then stimulated with nigericin (10 μM, 30 min) as indicated. (e) Expression of Nrlp3 and Illb genes analyzed by quantitative PCR from wild type or P2rx7^−/− BMDMs treated with ATP (3 mM, 30 min; ATP-pre), then washed and primed with or without LPS (100 ng/ml, 4 h). (f) Kaplan-Meier representation of wild type (top) or P2rx7^−/− (bottom) mice survival after sham operation (dotted line), or CLP operation (continuous line); some mice groups were i.p. injected with ATP (0.5 mg/g) 30 min before operation (dashed lines). Wild type CLP n=10, CLP+ATP n=8, sham n=4, sham+ATP n=4; P2rx7^−/− CLP n=4, CLP+ATP n=6, sham n=3. (g) IL-1β from peritoneal lavage (left) or bacterial load in blood (right) from wild type sham, CLP or CLP+ATP mice after 24 h. Each dot represents a single independent experiment (c,d), a sample from an individual healthy donor (a,b,e) or a single mouse (g); average±standard error is represented in panels a-e,g; *p<0.05; **p<0.01; ns, no significant difference (p>0.05); Mann-Whitney test was used for a,b,d,e; Kruskal-Wallis test was used for c; Long-rank test for f.
(§1) FIG. 7. Mitochondrial dysfunction mediates P2X7 receptor induced NLRP3 inflammasome impairment. (a) Mitochondrial membrane depolarization in BMDMs treated with ATP (3 mM, 30 min), then washed out and incubated for the indicated times in the absence or presence of LPS (1 μg/ml) as indicated. […] (e) Representative histogram plot of HIF-1α staining (left) or quantification of HIF-1α mean intensity fluorescence increase (ΔMFI, right) in monocytes isolated from healthy donor blood samples and treated or not with ATP (1 mM, 30 min) in the presence or absence of AZ11645373 (10 μM) or PDTC (10 μM), and then washed and cultured for 2 h; non-stained monocytes (light grey, left). […] (g) Expression of HIF1A gene analyzed by quantitative PCR from control surgery group and septic patients PBMCs; septic patients are separated into NLRP3 non-immunocompromised (grey bar) and immunocompromised (black bar). […]

[2] = test system: HIF-1α; test: HIF-1α staining in human monocytes by flow cytometry; assay type: cell-based; details: ATP 1 mM 30 min; for HIF-1α expression by the agent itself: washed, cultured 2 h (FIG. 7e); for HIF-1α expression induced by ATP treatment: AZ11645373 10 μM or PDTC 10 μM (FIG. 7e)
Method: Human peripheral blood mononuclear cells (PBMCs) were isolated from blood within one hour after extraction using Ficoll histopaque 1077 (Sigma-Aldrich). […] Cells were treated with ATP (Sigma-Aldrich), antimycin A (Sigma-Aldrich) or FCCP (Sigma-Aldrich) in the presence or absence of PDTC (Sigma-Aldrich) or echinomycin (Sigma-Aldrich) in E-total buffer (147 mM NaCl, 10 mM HEPES, 13 mM glucose, 2 mM CaCl2), 1 mM MgCl2, and 2 mM KCl) and then washed and stimulated with E. coli LPS O55:B5 in their respective complete media. […] After LPS treatment, cells were incubated with P2X7 modulating nanobodies, the specific P2X7 receptor antagonist A438079 or AZ11645373 (Tocris), and then subsequently stimulated with ATP or nigericin (Sigma-Aldrich) in E-total buffer. Times and concentrations for the reagents used are specified in the figure legends.
HIF-1α expression was detected in CD14^+ monocytes using Alexa Fluor-647 mouse anti-human HIF-1α (BD Biosciences, Clone 54) at 1:1000 dilution.

[3] = Cell death (LDH assay); assay type: cell-based
Method: Presence of LDH in cell-free supernatants was measured using the Cytotoxicity Detection kit (Roche) following the manufacturer's instructions.

[4] = test system: Nlrp3 and Illb; test: Quantitative PCR of Nlrp3 and Il1b gene induction by LPS; assay type: cell-based, mouse
Method: FIG. 6. P2X7 receptor stimulation induces an impairment of the NLRP3 inflammasome in monocytes. (a-b) Percentage of monocytes with ASC-specks (a) and release of […] from PBMCs (b) isolated from healthy donor blood samples treated with ATP (3 mM, 30 min; ATP-pre), then washed and primed with or without LPS (1 μg/ml, 2 h) and then treated for 20 min with ATP (3 mM; ATP-post) or nigericin (10 μM) as indicated. (c) IL-1β release from wild type or P2rx7^−/− BMDMs treated as in a, but with 4 h LPS priming and 30 min of ATP or nigericin. (d) IL-1β release from wild type or P2rx7^−/− BMDMs treated for 30 min with antimycin A (5 μM) or FCCP (1 μM) and then washed and primed with LPS (1 μg/ml, 4 h) and then stimulated with nigericin (10 μM, 30 min) as indicated. (e) Expression of Nrlp3 and Illb genes analyzed by quantitative PCR from wild type or P2rx7^−/− BMDMs treated with ATP (3 mM, 30 min; ATP-pre), then washed and primed with or without LPS (100 ng/ml, 4 h). […]
Detailed methods used for qRT-PCR have been described in the prior art. Relative gene expression levels were calculated using the 2^−ΔCt method normalizing to Hprt1 expression as endogenous control.

[5] = test system: BMDMs; test: ATP-induced mitochondrial membrane depolarization in BMDMs with or without antioxidant; assay type: cell-based, mouse; details: ATP 3 mM 30 min, PDTC 40 μM (FIG. 7c)
Method: as §1, with “indicated. (b) IL-1β release from wild-type BMDMs treated as in a, but after LPS priming cells were stimulated with nigericin (10 μM, 30 min). (c) Mitochondrial membrane depolarization in BMDMs treated with ATP (3 mM, 30 min) in the presence or absence pyrrolidine dithiocarbamate (PDTC, 40 μM).” for “indicated.”

[6] = test system: NLRP3 inflammasome; test: IL-1β release from PBMCs of healthy donors pre-treated with ATP, LPS-primed and stimulated with nigericin; assay type: cell-based; details: human PBMCs, ATP-pre 1 mM 30 min with PDTC 10 μM, LPS 1 μg/ml 4 h, nigericin 10 μM 30 min (FIG. 7d)
Method: as §1, with “indicated. (b) IL-1β release from wild-type BMDMs treated as in a, but after LPS priming cells were stimulated with nigericin (10 μM, 30 min). (c) Mitochondrial membrane depolarization in BMDMs treated with ATP (3 mM, 30 min) in the presence or absence pyrrolidine dithiocarbamate (PDTC, 40 μM).” for “indicated.”

Row | Compound | IL-1β release after mitochondrial depolarizing agent [1] | HIF-1α expression by the agent itself [2] | cell death [3] | HIF-1α expression induced by ATP treatment [2] | other results
1 | N#CC(C#N)=NNc1ccc(OC(F)(F)F)cc1 [FCCP] | reduced | did not increase | did not induce cell death | – | –
2 | antimycin A | reduced | did not increase | did not induce cell death | – | Nlrp3 and Illb gene induction by LPS [4]: reduced
3 | CS[C@H]1SC[C@H]2C(=O)N(C)[C@@H](C(C)C)C(=O)OC[C@@H](NC(=O)c3cnc4ccccc4n3)C(=O)N[C@@H](C)C(=O)N(C)[C@@H]1C(=O)N(C)[C@@H](C(C)C)C(=O)OC[C@@H](NC(=O)c1cnc3ccccc3n1)C(=O)N[C@@H](C)C(=O)N2C [echinomycin] | – | – | – | – | production of IL-1β after ATP stimulation before LPS-priming and NLRP3 stimulation ([1]; BMDMs, ATP-pre 3 mM 30 min with echinomycin 5 nM, LPS 1 μg/ml 4 h, nigericin 10 μM 30 min (FIG. 7f)): restored
4 | S=C(S)N1CCCC1 [PDTC, pyrrolidine dithiocarbamate] | – | – | – | able to prevent it | ATP-induced mitochondrial membrane depolarization [5]: able to protect; production of IL-1β after ATP stimulation before LPS-priming and NLRP3 activation [6]: restored
5 | O=C1CSC(=O)N1C(CCc1ccncc1)COc1ccc(-c2cccc([N+](=O)[O-])c2)cc1 (stereo not drawn) [AZ116] | – | – | – | able to prevent it | –
